Results from patent US11795180B2, “Formulation of a pan-JAK inhibitor” (THERAVANCE BIOPHARMA R&D IP, LLC, priority 2020, dated 2023).

How the values were obtained:
JAK2 = JAK2 (Homo sapiens, UniProt O60674); settings: cited from earlier work
[1] = cannulated rats; cited from earlier work
[2] = test system: oxazolone-induced colitis; test: Oxazolone-induced colitis model; type: in vivo; settings: mice
Excerpt: (§1) Oxazolone-induced colitis is an experimental model that has a histological resemblance to human ulcerative colitis.

[3] = oral dosing, preclinical species; cited from earlier work
[4] = Drug concentration in stool samples of healthy human subjects; type: in vivo
Excerpt: As described previously in U.S. Pat. No. 9,725,470, the absorption and distribution of Compound I has been extensively profiled in preclinical assays. […] In addition, Compound I is designed to have its effect at the site of action in the gastrointestinal tract.

[5] = rat; cited from earlier work
immunosuppression = test: Immunosuppression model (systemic functional activity); type: in vivo; settings: mice, same dose required to demonstrate efficacy in the oxazolone model
Excerpt: as §1

JAK3 = target: T1, JAK3 (Homo sapiens, UniProt P52333); settings: cited from earlier work
T1 sequence (P52333 1-1124): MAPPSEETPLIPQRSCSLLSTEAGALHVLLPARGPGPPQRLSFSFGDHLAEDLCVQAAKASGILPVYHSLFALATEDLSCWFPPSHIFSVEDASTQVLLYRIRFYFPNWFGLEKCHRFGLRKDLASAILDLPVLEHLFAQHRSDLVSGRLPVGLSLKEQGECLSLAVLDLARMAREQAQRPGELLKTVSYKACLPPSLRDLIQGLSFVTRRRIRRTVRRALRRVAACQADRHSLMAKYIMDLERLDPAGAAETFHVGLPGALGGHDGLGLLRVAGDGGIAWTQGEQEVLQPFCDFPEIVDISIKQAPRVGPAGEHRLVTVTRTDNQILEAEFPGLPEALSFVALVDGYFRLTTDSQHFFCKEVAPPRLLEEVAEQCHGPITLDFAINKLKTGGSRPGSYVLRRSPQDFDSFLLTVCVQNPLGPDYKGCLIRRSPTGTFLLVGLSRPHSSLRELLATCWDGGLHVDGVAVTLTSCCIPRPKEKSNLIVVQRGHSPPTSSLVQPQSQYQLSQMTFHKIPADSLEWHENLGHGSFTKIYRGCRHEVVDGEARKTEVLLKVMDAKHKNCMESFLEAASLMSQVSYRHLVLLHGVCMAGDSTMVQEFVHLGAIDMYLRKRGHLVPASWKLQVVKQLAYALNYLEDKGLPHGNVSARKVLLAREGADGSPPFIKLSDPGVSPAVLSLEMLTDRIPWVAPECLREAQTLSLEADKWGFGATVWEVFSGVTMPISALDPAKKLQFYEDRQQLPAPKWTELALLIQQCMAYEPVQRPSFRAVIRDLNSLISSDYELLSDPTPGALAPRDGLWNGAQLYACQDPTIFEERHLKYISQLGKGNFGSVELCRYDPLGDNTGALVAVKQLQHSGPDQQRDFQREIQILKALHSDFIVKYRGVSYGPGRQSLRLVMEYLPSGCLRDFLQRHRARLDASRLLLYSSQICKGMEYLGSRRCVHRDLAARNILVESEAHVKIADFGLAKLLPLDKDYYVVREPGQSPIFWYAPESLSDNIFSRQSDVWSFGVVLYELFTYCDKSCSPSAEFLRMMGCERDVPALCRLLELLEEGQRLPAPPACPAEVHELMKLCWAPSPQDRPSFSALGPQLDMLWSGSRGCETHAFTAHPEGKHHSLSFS

JAK1 = JAK1 (Homo sapiens, UniProt P23458); settings: cited from earlier work
TYK2 = TYK2 (Homo sapiens, UniProt P29597); settings: cited from earlier work
[6] = Dissolution profiles of tablets with 3% magnesium stearate (blending process, particle size); type: physicochemical; settings: tablet with 3% magnesium stearate, Compound I particles blended with a filler, no pre-blending with hydrophobic colloidal silicon dioxide
Method: […] The particle size of Compound I was determined by static image analysis.
During manufacturing of certain tablets comprising 0.5-1% magnesium stearate, film formation on tablet punches was observed. The film formed after compression of a few tablets. After extensive investigation, the problem was resolved by increasing the magnesium stearate content in the composition up to 3%. […]
Using this manufacturing procedure, consistently fast dissolution profiles were obtained for different particle sizes of Compound I without leading to the unwanted film formation on tablet punches. Dissolution profiles of tablets manufactured according to this procedure and containing various particle sizes of Compound I are depicted in FIG. 9.

Chain of JAK1 (P23458 whole entry): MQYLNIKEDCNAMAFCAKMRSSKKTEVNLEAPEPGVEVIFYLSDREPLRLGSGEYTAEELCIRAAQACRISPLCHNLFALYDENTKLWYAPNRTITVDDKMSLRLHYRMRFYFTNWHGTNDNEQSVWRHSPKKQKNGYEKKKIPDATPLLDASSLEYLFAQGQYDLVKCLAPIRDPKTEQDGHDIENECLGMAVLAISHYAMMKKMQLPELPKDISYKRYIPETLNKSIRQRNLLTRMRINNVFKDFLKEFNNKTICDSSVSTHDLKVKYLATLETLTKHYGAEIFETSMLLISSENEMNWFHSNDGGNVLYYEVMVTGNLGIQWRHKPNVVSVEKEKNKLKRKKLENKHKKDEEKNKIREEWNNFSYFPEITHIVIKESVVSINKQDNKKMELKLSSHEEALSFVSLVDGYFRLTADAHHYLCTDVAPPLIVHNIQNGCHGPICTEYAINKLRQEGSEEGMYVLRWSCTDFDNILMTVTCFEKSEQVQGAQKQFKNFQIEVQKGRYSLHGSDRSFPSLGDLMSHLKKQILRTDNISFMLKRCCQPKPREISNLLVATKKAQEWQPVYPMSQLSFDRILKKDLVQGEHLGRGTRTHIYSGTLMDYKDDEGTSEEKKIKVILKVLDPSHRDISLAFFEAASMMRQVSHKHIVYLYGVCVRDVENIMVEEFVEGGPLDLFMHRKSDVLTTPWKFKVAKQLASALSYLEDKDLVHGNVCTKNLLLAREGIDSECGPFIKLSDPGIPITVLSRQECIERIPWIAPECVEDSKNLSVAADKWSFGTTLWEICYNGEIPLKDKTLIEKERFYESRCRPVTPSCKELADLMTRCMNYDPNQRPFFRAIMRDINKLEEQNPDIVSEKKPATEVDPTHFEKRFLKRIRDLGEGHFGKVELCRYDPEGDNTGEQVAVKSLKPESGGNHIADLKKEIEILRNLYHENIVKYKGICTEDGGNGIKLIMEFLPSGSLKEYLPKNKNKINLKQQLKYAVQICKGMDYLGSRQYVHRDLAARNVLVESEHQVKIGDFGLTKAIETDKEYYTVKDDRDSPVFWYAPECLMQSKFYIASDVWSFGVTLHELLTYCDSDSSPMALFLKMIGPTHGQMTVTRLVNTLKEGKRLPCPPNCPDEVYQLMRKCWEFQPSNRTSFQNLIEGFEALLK
Chain of TYK2 (P29597 whole entry): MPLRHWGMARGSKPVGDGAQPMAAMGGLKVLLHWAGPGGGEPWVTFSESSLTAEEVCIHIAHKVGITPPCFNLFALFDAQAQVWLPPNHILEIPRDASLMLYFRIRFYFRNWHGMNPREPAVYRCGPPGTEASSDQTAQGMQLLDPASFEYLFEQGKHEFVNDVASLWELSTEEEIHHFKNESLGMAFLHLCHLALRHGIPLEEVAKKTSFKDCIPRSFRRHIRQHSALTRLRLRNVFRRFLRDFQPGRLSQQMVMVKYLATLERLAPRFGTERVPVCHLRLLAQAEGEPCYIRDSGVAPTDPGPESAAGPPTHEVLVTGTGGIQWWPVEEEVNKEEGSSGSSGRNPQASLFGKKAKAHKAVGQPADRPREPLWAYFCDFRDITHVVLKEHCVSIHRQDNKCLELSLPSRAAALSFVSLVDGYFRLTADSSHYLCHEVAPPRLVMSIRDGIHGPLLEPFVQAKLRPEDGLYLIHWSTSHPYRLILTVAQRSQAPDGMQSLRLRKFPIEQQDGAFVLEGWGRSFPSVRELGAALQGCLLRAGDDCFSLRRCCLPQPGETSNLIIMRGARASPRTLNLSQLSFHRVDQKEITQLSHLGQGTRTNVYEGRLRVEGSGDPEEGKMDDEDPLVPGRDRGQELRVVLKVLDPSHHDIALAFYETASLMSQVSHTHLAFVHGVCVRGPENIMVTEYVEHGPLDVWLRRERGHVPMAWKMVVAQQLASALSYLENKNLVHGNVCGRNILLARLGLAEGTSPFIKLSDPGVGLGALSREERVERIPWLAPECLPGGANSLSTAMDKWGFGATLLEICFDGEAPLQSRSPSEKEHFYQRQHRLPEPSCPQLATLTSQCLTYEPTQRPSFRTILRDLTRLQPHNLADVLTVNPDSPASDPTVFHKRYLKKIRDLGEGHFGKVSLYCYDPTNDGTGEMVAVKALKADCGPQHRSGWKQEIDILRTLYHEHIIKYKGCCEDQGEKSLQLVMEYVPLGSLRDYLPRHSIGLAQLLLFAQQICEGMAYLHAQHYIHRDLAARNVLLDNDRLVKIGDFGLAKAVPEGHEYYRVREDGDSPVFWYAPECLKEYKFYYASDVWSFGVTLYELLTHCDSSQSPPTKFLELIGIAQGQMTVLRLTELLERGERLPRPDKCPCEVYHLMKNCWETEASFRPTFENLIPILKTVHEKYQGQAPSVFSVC
Chain of JAK2 (O60674 whole entry): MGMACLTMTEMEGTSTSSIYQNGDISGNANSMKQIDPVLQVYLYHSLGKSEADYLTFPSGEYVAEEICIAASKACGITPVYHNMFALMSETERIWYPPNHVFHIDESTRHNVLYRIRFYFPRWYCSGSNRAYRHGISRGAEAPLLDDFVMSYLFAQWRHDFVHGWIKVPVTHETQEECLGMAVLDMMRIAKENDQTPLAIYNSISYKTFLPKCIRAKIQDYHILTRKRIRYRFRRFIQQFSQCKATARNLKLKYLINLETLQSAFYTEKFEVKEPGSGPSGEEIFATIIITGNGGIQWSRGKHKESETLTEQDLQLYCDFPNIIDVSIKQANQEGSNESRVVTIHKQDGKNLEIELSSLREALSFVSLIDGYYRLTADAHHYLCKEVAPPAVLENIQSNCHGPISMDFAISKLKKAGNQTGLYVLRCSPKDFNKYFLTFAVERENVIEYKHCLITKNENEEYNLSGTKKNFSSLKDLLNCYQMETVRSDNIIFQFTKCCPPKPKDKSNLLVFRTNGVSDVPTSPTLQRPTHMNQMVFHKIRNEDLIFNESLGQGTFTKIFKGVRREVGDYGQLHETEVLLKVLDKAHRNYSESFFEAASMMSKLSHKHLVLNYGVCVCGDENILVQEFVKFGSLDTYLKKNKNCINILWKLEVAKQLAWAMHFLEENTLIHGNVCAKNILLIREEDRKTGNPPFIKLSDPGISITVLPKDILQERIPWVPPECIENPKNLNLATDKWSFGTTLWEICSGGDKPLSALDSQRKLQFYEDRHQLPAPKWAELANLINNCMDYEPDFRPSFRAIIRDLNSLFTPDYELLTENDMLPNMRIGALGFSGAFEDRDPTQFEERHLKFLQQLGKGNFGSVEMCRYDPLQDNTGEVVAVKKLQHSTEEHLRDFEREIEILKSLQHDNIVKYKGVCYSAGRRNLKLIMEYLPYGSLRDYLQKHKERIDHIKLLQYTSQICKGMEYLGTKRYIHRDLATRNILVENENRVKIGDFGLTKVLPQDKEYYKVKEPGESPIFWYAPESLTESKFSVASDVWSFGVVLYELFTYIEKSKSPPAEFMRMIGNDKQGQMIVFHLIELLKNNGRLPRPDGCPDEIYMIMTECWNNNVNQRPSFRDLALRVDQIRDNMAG

Cc1cc(Nc2cc3ncccc3c(N[C@@H]3C[C@H]4CC[C@@H](C3)N4CCC#N)n2)n[nH]1 [Compound I, 3-((1R,3s,5S)-3-((7-((5-methyl-1H-pyrazol-3-yl)amino)-1,6-naphthyridin-5-yl)amino)-8-azabicyclo[3.2.1]octan-8-yl)propanenitrile]
Inhibition of JAK2 (JAK2): potent inhibitor
Absorption into plasma at the portal vein [1]: low absorption
Activity in the oxazolone-induced colitis model [2]: demonstrated activity
Exposure throughout the gastrointestinal tract compared with exposure in plasma [3]: significantly higher exposure
Drug concentration in stool samples [4]: high drug concentration
Ratio of exposure in the colon to exposure in plasma [5]: greater than 450
Effect of immunosuppression (immunosuppression): minimal effect of immunosuppression
Inhibition of JAK3 (JAK3): potent inhibitor
Inhibition of JAK1 (JAK1): potent inhibitor
Inhibition of TYK2 (TYK2): potent inhibitor
Dissolution rate (FIG. 8) [6]: reduced dissolution rate
